Ends that are not written are not given here. * marks the point of attachment. Octanoyl = CCCCCCCC(=O)*
Columns and labels:
primary SCs = test: Primary SCs from normo-perfused muscles subjected to in vitro ischemia; format: cell-based, mice
Protocol: (§1) SCs were isolated from gastrocnemius muscles of C57BL/6J wild type mice subjected to ischemia or C57BL/6J mice lacking the GHSR1a and ghrelin genes (10 mice, kind gift of Professor M. Tschöp)^39. To obtain SCs, muscle samples were subjected to enzymatic digestion as described^45. In selected experiments, SCs were recovered from normo-perfused muscles and subjected to in-vitro ischemia in presence of saline, AG (1 μmol/L) or UAG (1 μmol/L). In-vitro ischemia was induced by incubating cells in DMEM+2% FCS at 5% CO2/95% N2 humidified atmosphere, yielding 1% O2 concentrations for 24 h^18. The in-vitro ischemia was also performed in the presence of SB202190 (1 μmol/L).
(§2) SC cell-cycle progression was evaluated by evaluating the percentage of PCNA-positive cells or by FACS analysis as previously described^46. The percentage of cells in each cell cycle phase was determined by ModFit LT software (Verity Software House. Inc, topsham, ME, USA). Celss proliferation was also assayed by evaluating the percentage of PCNA-positive cells by FACS analysis.
(§3) Cells were lysed and protein detection was obtained as previously described^47. Cells were lysed (50 mmol/L Tris HCl [pH 8.3], 1% Triton X-100, 10 mmol/L PMSF, 100 U/ml aprotinin, 10 μmol/L leupeptin) and protein concentrations were obtained as previously described^47. […] Densitometric analysis was used to calculate the differences in the fold induction of protein levels and normalized to tubulin, a actin or p38MAPK content. Values are reported as relative amount
(§4) Intracellular ROS production was evaluated using DCF-DA (5-(and-6)-carboxy-2′,7′-dichlorofluorescein diacetate, […] final concentration) (Molecular Probe, Invitrogen) assay as previously described^23. The formation of TBARS was determined in muscles using the OXI-TEK kit (ZeptoMetrix Corp.) and a luminescence spectrometer (Bio-Rad Laboratories, Hercules, Calif.) with excitation set at 530 nm, emission at 550 nm to measure in-vivo oxidative stress levels^33.
(§5) Total RNA was isolated using TRIzol reagent (Invitrogen) from SCs recovered from muscles of treated animals or from SCs subjected to in-vitro ischemia. miR-221/222 expression was evaluated by qRT-PCR as previously described^48. Loss-of-function experiments were performed in SCs transfected for 48 h with anti-miRNA negative control, anti-miR-221/222 antagonists (Applied Biosystem, Foxter Cyto CA, USA), according to the manufacturer's instructions^48.
To obtain SOD-2 inactivation, SCs were transiently transfected with siRNA for SOD-2 or with duplex siRNAs (Qiagen, Valencia, Calif., USA) as previously described^44. Transfection was performed according to the manufacturer's instructions. Whole cell extracts were processed 48 h after transfection. Cell viability was evaluated at the end of each experiment. […]

C57BL/6J mice [1] = test: Murine hind-limb ischemia model (foot damage score, histology, IF, TBARS); format: in vivo; details: for capillary density, ischemic vs contralateral control muscle of the same animals: ischemic vs normo-perfused muscle; for protection against ischemia-induced damage (in vivo effects): overall conclusion; for foot damage (functional score): unilateral hind-limb ischemia, i.p. daily from day 0 to day 21, vs saline
Protocol: (§6) Male C57BL/6J mice (Charles River Lab., Wilmington, Mass., USA) were anesthetized and unilateral hind limb ischemia was induced as described^42. The normo-perfused contralateral limb of each mouse was used as an internal control. After hind-limb ischemia, animals (18 mice per group) were treated by intra-peritoneal injection daily from 0 to day 21 with either saline, AG ([…]) or UAG ([…]). In selected experiments, mice received intramuscular injections of pre-miR oligonucleotides (5 mice/group). To induce toxic damage, 100 μl of 1% barium chloride (BaCl2, Sigma Aldrich) was injected unilaterally into the hind limb (9 mice). Mice were treated according to European Guidelines and policies as approved by the University of Turin Ethical Committee.
Semiquantitative estimation (by repeated measures analyzed with ANOVA and Newman-Keuls Multiple Comparison test) of foot damage was performed serially using the following classification: 3=dragging of foot (foot necrosis), 2=no dragging but no plantar flexion (foot damage), 1=plantar flexion but no toe flexion (toe damage), and 0=flexing the toes to resist gentle traction on the tail (no damage)^43.
(§7) Gastrocnemius muscle sections from ischemic or normo-perfused limbs were stained with hematoxylin and eosin for histological analysis. The proportion of fibers with central nuclei (regenerating fibers) was measured by MetaMorph software (Life Sciences Research Imaging Systems) in the injured area and the cross-sectional areas of the fibers in the injured and non-injured areas. For IF analysis, muscle sections were processed as described previously^44. The number of cells expressing the indicated markers or CD31 positive vessels was evaluated as previously described^34.
as §4

SCs from double KO mice = SCs from double KO mice (lacking GHSR1a and ghrelin genes) subjected to in vitro ischemia; format: cell-based; details: for protection of SCs from ROS generation: DCF-DA
Protocol: as §1, §2, §3, §4

[2] = U.S. Pat. Nos. 8,222,217 and 8,318,664; cited from earlier work
[3] = test system: endothelial progenitor cells (EPCs); details: cited from earlier work
satellite cells (SCs) = test: SCs recovered from ischemic muscles of treated mice (count, Western blot, DCF-DA, qRT-PCR); format: in vivo
Protocol: as §6, §1, §3, §4, §5

GH secretion = details: cited from earlier work
[4] = test system: C2C12 mouse muscular cell line; test: ROS production (DCF-DA) in C2C12 cells subjected to oxidative stress; format: cell-based; details: for protective effect on C2C12 cells against oxidative stress: oxidative stress by hypoxia, AGEs, hyperglycemia or H2O2, 1 μmol/L; for retention of the functions of UAG: results provided herein
Protocol: Kinetic analysis of ROS production was evaluated by using DCF-DA (5-(and-6)-carboxy-2′,7′-dichlorofluorescein diacetate, 0.5 μmol/L final concentration) (Molecular Probe, Invitrogen) assay. C2C12 cells were cultured with 400 μg/ml Advanced Glycated End-product (AGE) or 25 mM glucose (high glucose HG) for 48 h, H2O2 (100 μM) for 2 h. In parallel experiments C2C12 cells were subjected to hypoxia (DMEM+2% FCS in a 5% CO2-95% N2 humidified atmosphere, yielding to 1% O2 concentrations for 24 h). UAG (1 μmol/L) AZP 531 (1 μmol/L) or AZP-502 (1 μmol/L) was added where indicated.

healthy volunteers = details: administered concomitantly in healthy volunteers; cited from earlier work
C57BL/6J mice [5] = test: Toxic damage induced by 1% barium chloride (BaCl2) in gastrocnemius muscle; format: in vivo; details: 1% BaCl2 injected into hind limb
Protocol: as §6, §7

GHSR-1a = GHSR-1a (Homo sapiens, UniProt Q92847); details: cited from earlier work
Sequence of GHSR-1a (Q92847 whole entry): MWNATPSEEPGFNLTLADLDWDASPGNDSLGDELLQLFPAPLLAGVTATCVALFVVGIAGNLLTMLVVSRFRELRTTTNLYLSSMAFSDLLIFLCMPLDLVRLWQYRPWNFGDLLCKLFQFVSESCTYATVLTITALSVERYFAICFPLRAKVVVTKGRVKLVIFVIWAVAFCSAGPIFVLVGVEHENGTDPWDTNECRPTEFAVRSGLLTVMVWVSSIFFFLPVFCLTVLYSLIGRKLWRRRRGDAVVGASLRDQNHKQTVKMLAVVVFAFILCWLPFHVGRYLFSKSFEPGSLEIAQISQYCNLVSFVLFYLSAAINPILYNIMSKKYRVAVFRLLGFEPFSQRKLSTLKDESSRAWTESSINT

[6] = SB202190 1 μmol/L added, in vitro ischemia
[7] = SOD-2 silenced using siRNA, in vitro ischemia
[8] = in vitro ischemia 1% O2 24 h, 1 μmol/L

**Q.** For `Oc1ccc(-c2nc(-c3ccncc3)c(-c3ccc(F)cc3)[nH]2)cc1` [SB202190, reference compound], which “MyoD and myogenin expression in SCs exposed to UAG” value (primary SCs; [6]) is on record?
**A.** prevented MyoD and myogenin expression

**Q.** And the “cell-cycle entry of SCs exposed to UAG” value (primary SCs; [6])?
**A.** blocked cell-cycle entry

**Q.** For “AG: 28 amino acid peptide characterized by the presence of an n-octanoyl modification on the Ser3 residue (GSS(Octanoyl)FLSPEHQRVQQRKESKKPPAKLQPR; UniProt Q9UBU3 24-51, looked up) [reference compound]”, which “concentration of TBARS in ischemic muscles” value (C57BL/6J mice [1]; gastrocnemius muscle) is on record?
**A.** Significant increases

**Q.** What about the “capillary density, ischemic vs contralateral control muscle of the same animals” value (C57BL/6J mice [1]) of the same molecule?
**A.** significantly lower capillary density

**Q.** And the “protection against ischemia-induced damage (in vivo effects)” value (C57BL/6J mice [1])?
**A.** failure to detect in vivo effects

**Q.** And the “foot damage (functional score)” value (C57BL/6J mice [1])?
**A.** significantly higher

**Q.** And the “protection of SCs from ROS generation” value (SCs from double KO mice)?
**A.** unlike AG

**Q.** For EHQRVQ [UAG (8-13)], which “activity on glucose, insulin and lipid metabolisms relative to UAG full length” value [2] is on record?
**A.** retain the activity of UAG full length

**Q.** For “Glu-His-Gln-Arg (EHQR; listed as Homo sapiens) [UAG (8-11)]”, which “activity on glucose, insulin and lipid metabolisms relative to UAG full length” value [2] is on record?
**A.** retain the activity of UAG full length

**Q.** With “Glu-His-Gln-Arg-Val (EHQRV; listed as Homo sapiens) [UAG (8-12)]” as the molecule, how does the “activity on glucose, insulin and lipid metabolisms relative to UAG full length” value [2] read?
**A.** retain the activity of UAG full length

**Q.** Which results are given for “Gly-Ser-Ser-Phe-Leu-Ser-Pro-Glu-His-Gln-Arg-Val-Gln-Gln-Arg-Lys-Glu-Ser-Lys-Lys-Pro-Pro-Ala-Lys-Leu-Gln-Pro-Arg (GSSFLSPEHQRVQQRKESKKPPAKLQPR; listed as Homo sapiens) [UAG]”?
**A.** protection of EPCs from oxidative stress (ROS generation) [3]: only UAG protects endothelial progenitor cells (EPCs) from oxidative stress; ROS production in SCs from treated mice (satellite cells (SCs); DCF-DA assay): lower; levels of phospho(p)-p38/MAPK protein in SCs (satellite cells (SCs); SCs from treated mice, Western blot): found to be higher; SOD-2 protein expression in SCs from treated mice (satellite cells (SCs); Western blot): higher; levels of p57kip2 protein in SCs from treated mice (satellite cells (SCs); Western blot): reduced; number of Pax-7/MyoD/Myf5+ SCs isolated and counted ex vivo (satellite cells (SCs); ischemic muscles of treated mice): significantly increased number; expression of miR-221 and miR-222 in SCs recovered from muscles of treated mice (satellite cells (SCs); qRT-PCR, compared to controls): significantly increased; effect on GH secretion (GH secretion): no physiological effect on GH secretion; protective effect on C2C12 cells against oxidative stress [4]: have a protective effect; number of Pax-7/MyoD+ cells in ischemic muscles (C57BL/6J mice [1]; day 7): increased number of Pax-7/MyoD+ cells; Pax-7/MyoD+ cells in ischemic muscles (C57BL/6J mice [1]; day 21): scattered Pax-7/MyoD+ cells were still present; number of SOD-2/Pax-7+ cells in ischemic muscle (C57BL/6J mice [1]; double immunostaining, day 7): increased number of SOD-2/Pax-7+ cells; number of CD68-positive inflammatory cells (C57BL/6J mice [1]; ischemic muscle): reduced number of CD68-positive inflammatory cells; number of regenerating myofibers in gastrocnemius muscles (C57BL/6J mice [1]; ischemic muscle): increased number of regenerating myofibers; number of myogenin-positive cells in ischemic muscles (C57BL/6J mice [1]; ischemic muscles): increased number of myogenin-positive cells; number of functional vessels in ischemic muscles (C57BL/6J mice [1]; ischemic muscles, compared to the other groups): larger number of functional vessels; capillary density, ischemic vs contralateral control muscle of the same animals (C57BL/6J mice [1]): no such differences were observed; protection against ischemia-induced damage (in vivo effects) (C57BL/6J mice [1]): appears to protect against ischemia-induced damage; foot damage (functional score) (C57BL/6J mice [1]): damage was significantly higher in saline- and AG-treated groups than in the UAG-treated group; hyperglycemic effects of ghrelin (healthy volunteers): prevent the hyperglycemic effects of ghrelin; regeneration of skeletal muscle after BaCl2 (ROS-independent damage) (C57BL/6J mice [5]): regeneration of skeletal muscle was no longer observed; binding to GHSR-1a (GHSR-1a): fails to bind; cell-cycle entry or expression of SOD-2, Pax-7, MyoD, or myogenin (primary SCs; SCs transfected with anti-miR-221/222 antago-miRs (data not shown)): no longer had any effect; p-p38/MAPK levels (primary SCs; SCs transfected with anti-miR-221/222 antago-miRs, UAG (data not shown)): p-p38/MAPK levels were reduced; UAG-induced miR-221/222 expression (primary SCs; SOD-2 knock-down, in vitro ischemia): prevents UAG-induced miR-221/222 expression; cell-cycle progression (primary SCs; [7]): did not undergo cell-cycle progression; p38/MAPK phosphorylation (primary SCs; [7]): did not induce p38/MAPK phosphorylation; protection of SCs against ROS generation (primary SCs; [7]): did not protect SCs against ROS generation; expression of Pax-7, MyoD (primary SCs; [8]): induced expression; expression of myogenin (primary SCs; [8]): induced expression; levels of pp38/MAPK (primary SCs; [8]): increased levels; ROS production (primary SCs; in vitro ischemia, DCF-DA): ROS production was decreased; PCNA expression (primary SCs; in vitro ischemia, FACS): increased PCNA expression; number of cells in S phase (primary SCs; in vitro ischemia, FACS): increased; SOD-2 expression (primary SCs; in vitro ischemia, Western blot): SOD-2 expression increased; SC cell-cycle progression (SCs from double KO mice): only UAG promoted SC cell-cycle progression; SOD-2 expression (SCs from double KO mice): induced SOD-2 expression; p-p38/MAPK, Pax-7, MyoD, Myf5 and myogenin expression (SCs from double KO mice): induced; protection of SCs from ROS generation (SCs from double KO mice): protected SCs from ROS generation

**Q.** With “His-Gln-Arg (HQR; listed as Homo sapiens) [UAG (9-11)]” as the molecule, how does the “activity on glucose, insulin and lipid metabolisms relative to UAG full length” value [2] read?
**A.** retain the activity of UAG full length

**Q.** Which “activity on glucose, insulin and lipid metabolisms relative to UAG full length” value [2] does the source give for “His-Gln-Arg-Val (HQRV; listed as Homo sapiens) [UAG (9-12)]” here?
**A.** retain the activity of UAG full length

**Q.** What does the source list for SPEHQRVQ [UAG (6-13)]?
**A.** activity on glucose, insulin and lipid metabolisms relative to UAG full length [2]: retain the activity of UAG full length; protective effect on C2C12 cells against oxidative stress [4]: have a protective effect; retention of the functions of UAG [4]: retain the functions of UAG

**Q.** For “Ser-Pro-Glu-His-Gln-Arg-Val-Gln (cycl) (SPEHQRVQ; cyclic; (1)..(8) Cyclic; listed as Homo sapiens) [UAG(6-13)cyclic]”, which “protective effect on C2C12 cells against oxidative stress” value [4] is on record?
**A.** have a protective effect

**Q.** What about the “retention of the functions of UAG” value [4] of the same molecule?
**A.** retain the functions of UAG

Source: US20140378380A1, “USE OF UNACYLATED GHRELIN, FRAGMENTS AND ANALOGS THEREOF AS ANTIOXIDANT” (Alizé Pharma SAS, priority 2013, published 2014)
